Experimental findings from patent US10842151B2, “Small molecule compound for enhancing plant stress resistance” (SHANGHAI INSTITUTES FOR BIOLOGICAL SCIENCES, CHINESE …, priority 2015, dated 2020) are described below.

One data set has as its target T1, PYL2 + HAB1 (Arabidopsis thaliana, UniProt O80992).
T1 construct: made in house; host or cells: E. coli BL21 (DE3)
T1 sequence (O80992 14-188 limits assumed): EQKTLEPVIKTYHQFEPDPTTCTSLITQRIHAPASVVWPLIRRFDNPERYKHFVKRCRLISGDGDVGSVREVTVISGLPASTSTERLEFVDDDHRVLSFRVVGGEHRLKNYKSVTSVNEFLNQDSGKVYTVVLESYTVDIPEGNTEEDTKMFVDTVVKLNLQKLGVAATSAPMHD
T1 sequence (Q9CAJ0 172-511 partner limits assumed): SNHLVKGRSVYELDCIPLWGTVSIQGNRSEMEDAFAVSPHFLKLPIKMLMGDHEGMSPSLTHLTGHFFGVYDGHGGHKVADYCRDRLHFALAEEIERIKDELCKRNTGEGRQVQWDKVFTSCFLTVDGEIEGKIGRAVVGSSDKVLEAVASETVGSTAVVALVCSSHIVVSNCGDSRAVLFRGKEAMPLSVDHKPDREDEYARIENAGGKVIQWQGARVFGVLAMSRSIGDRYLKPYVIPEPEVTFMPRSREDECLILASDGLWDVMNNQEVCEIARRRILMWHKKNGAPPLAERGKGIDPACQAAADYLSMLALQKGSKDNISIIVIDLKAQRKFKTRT
In words: AlphaScreen experiment, PYL2 + HAB1. The note with it: number in brackets; read-out: Half maximum effect concentration EC50 (PYL2 + HAB1). Format: binding. The procedure: (§1) After incubating for 1.5 hours at room temperature in the dark, it was placed into an Envision Plate Reader (available from Perkin Elmer) under the programmed AlphaScreen procedure for readings.

Another data set addresses T2, PYL7 + HAB1 (Arabidopsis thaliana, UniProt Q1ECF1).
T2 construct: made in house; host or cells: E. coli BL21 (DE3)
T2 sequence (Q1ECF1 1-211): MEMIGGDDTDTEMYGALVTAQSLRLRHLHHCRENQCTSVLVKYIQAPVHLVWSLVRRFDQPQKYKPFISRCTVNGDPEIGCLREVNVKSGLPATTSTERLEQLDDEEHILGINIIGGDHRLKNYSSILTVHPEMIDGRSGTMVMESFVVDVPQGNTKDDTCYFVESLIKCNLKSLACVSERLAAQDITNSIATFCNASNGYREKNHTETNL
T2 sequence (Q9CAJ0 172-511 partner limits assumed): T1 sequence (Q9CAJ0 172-511 partner limits assumed)
In words: AlphaScreen experiment, PYL7 + HAB1. Format: binding. The note with it: number in brackets; read-out: Half maximum effect concentration EC50 (PYL7 + HAB1). The procedure: as §1

In data set [1] the test system is pyr1;pyl1;pyl4 triple mutant seeds. Put plainly: Seed germination, PYR/PYL triple mutant. The note with it: 1 μM; six days after seeding. It is filed as in vivo, Arabidopsis thaliana. From the text: Two lines of plant were sown simultaneously on a single medium of 6 cm diameter, with 15 seeds sown for each line and 4 replicates for each compound. […]
The next data set has as its system soybean. In words: Soil drought experiment, soybean. The note with it: 50 μM. Format: in vivo. The procedure: Only one plant was contained in each pot. All soybean plants were long-day cultured at 26° C. Watering was stopped after the plant had three leaves in each of three groups of leaves and the plants with consistent growth were selected for drought treatment. As for corn, watering was stopped during the small trumpet period for drought treatment. […] After a week, the watering was resumed. Soybeans and cotton used in leaf transpiration experiments for compound 0720B were also used for soil drought experiments. Each pot contained only one plant and was filled with the same weight of soil to reduce experimental errors. All of the soybean plants were grown at 26° C. for long-day culture. 16 days after seeding, watering was stopped and the plants with consistent growth were selected for drought treatment. […] Cotton drought experiments were similar to that of the soybean. 23 days after seeding, the watering was stopped, and the plants with consistent growth were selected for drought treatment. […] After 10 days of drought, the photos were taken.

The next data set relates to Kyoho grapes. Put plainly: Grape coloring experiment (anthocyanin content). Format: in vivo. The note with it: aqueous suspension; vs fresh water control. The procedure: The grapes used in the experiment were commercially available variety of Kyoho. According to weather conditions, during the color conversion period of grapes, the fruit ears with the same size and consistent growth were selected and soaked with a water suspension preparation containing 2000 mg/L, 1000 mg/L, 500 mg/L and 100 mg/L of 6% AMX compound 1127 for 10 seconds. Soaking in water was regarded as a control. Each experiment was repeated 10 times, each ear was regarded as a duplicate. Samples were collected after harvesting. Samples were collected from the upper, middle and lower parts of each ear in two directions, i.e., glossy and backlit, with 6 grains collected per ear. The samples were preserved in the laboratory at −20° C. for use.
30 pieces of pericarp were evenly taken from up and low portion around the equator of grape fruit by using a hole puncher with a diameter of 10 mm. After they were mixed well and weighed, the anthocyanin in the pericarp was determined. […] The content of anthocyanins (calculated as cornflower-3-glucoside equivalent) was determined by pH differential method and each treatment was repeated three times. Content of anthocyanins (mg/g) X=ΔA×F×M/ε×m, wherein ΔA was absorbance; F was fold of dilution; M is the relative molecular mass 449.2 of cyanidin-3-glucoside, ε is a molar extinction coefficient 26,900 for cyanidin-3-glucoside; m is sample mass.

Data set [2] deals with Chinese hamster lung cell (CHL). Put plainly: In vitro micronucleus experiment. Format: cell-based. To be noted: -S9; 24 hours. The protocol:
(§2) The test substance used in the experiment was AMX compound 1127.
Firstly, CHL cells used in in vitro micronucleus test were tested in IC50 determination experiment. According to IC50 determination results, in vitro micronucleus test dosage was set. 4 doses of 1 μg/ml, 20 μg/ml, 30 μg/ml and 40 μg/ml were set in total, while a negative control and a positive control were also set. The CHL cells were treated for 24 hours under the condition of −S9 and sections were prepared.
The numbers of monocytes, binucleate cells and multinucleated cells in 500 cells per dose were counted and the cytokinesis-block proliferation index (CBPI) and cytotoxicity at each dose were calculated.

A short description of data set [3]: Maximum tolerated dose, single oral gavage. It is filed as in vivo. The note with it: both sexes, rat, in vivo, 5000 mg/kg, SD rats. The procedure: as §2
(§3) In the maximum tolerated dose of tested substance in single oral gavage experiment in SD rat, 8 SD rats were randomly divided into two groups, with […]. After a single oral gavage administration, rats were observed continuously for 14 days and dissected on the 15th day. The following indicators were evaluated: clinical observation, body weight and pathology examination (macroscopic morphology).

The next data set relates to SD rat. Put plainly: Maximum tolerated dose, single oral gavage. It is filed as in vivo. To be noted: 5000 mg/kg, male and female rats. The procedure:
as §2, §3

For the molecule `CCCN1C(=O)CCc2cc(NS(=O)(=O)Cc3c(F)c(F)c(C)c(F)c3F)ccc21` [Compound 1127], the EC50 at PYL2 + HAB1 came out at 20 nM; on PYL7 + HAB1 it was 10 nM. Moreover, the “germination of pyr1;pyl1;pyl4 triple mutant seeds” value in data set [1] was “could not inhibit germination of PYR/PYL triple mutant pyr1;pyl1;pyl4 seeds”. For the same molecule, in the data set on soybean (a week of drought, one month after rewatering), the growth entry is “grew significantly better than the plants sprayed with DMSO (control) and sprayed with 50 μM ABA”. Also, the survival rate result in the data set on soybean (after rewatering) was “higher than that in the above two groups”. The “content of anthocyanin in grapes peel” value with Kyoho grapes is “significantly higher than that in the fresh water control group”. Moreover, the “micronuclei rate in CHL cells” value in data set [2] is reported as “did not induce an increased micronuclei rate”. Further, the MTD at 14 days in data set [3] is > 5000 mg/kg. Besides, the “clinical observation, body weight and macroscopic morphological observation of tissues/organs” value in the data set on SD rat is listed as “no drug-related changes were observed”.
